Measurements as given in the supplement of paper PMC4862054.

test system: BT-549; experiment: normalised response (% of control), CellTiter-Glo; higher = more viable cells (100 = DMSO, 0 = benzethonium chloride kill control); conditions: incubation time: 72 h
Procedure: (§1)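 DSRT, 72 h incubation, CellTox Green / CellTiter-Glo readout. Signal is normalised to DMSO and benzethonium chloride controls. Value is the normalised response at dose 3.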

How did the normalised response turn out when Nc1nccc(-c2c(-c3ccc(F)cc3)ncn2C2CCCCC2)n1 (100 nM) was run?
The normalised response was 98.3%.

COC1=C2C[C@@H](C)C[C@H](OC)[C@H](O)[C@@H](C)/C=C(\C)[C@H](OC(N)=O)[C@@H](OC)/C=C\C=C(/C)C(=O)NC(=CC1=O)C2=O [Geldanamycin] (100 nM) was tested. Which normalised response did it give?
The normalised response was 96.5%.

How did the normalised response turn out when Cn1c(=O)c(F)c(Nc2ccc(I)cc2F)c2c(=O)n(C[C@@H](O)CO)cnc21 [TAK-733] (10 nM) was run?
The normalised response was 104%.

Which normalised response does the source give for CS(=O)(=O)CCNCc1ccc(-c2ccc3ncnc(Nc4ccc(OCc5cccc(F)c5)c(Cl)c4)c3c2)o1 [Lapatinib] (10 nM) here?
Its normalised response is 105%.

Cc1cc(C(C)Nc2ccccc2)c2nc(N3CCOCC3)cc(=O)n2c1 (stereo not given) [TGX-221] (100 nM) was tested. Which normalised response did it give?
Its normalised response is 86.5%.

With CCS(=O)(=O)c1cccc(-c2cc(C(=O)NC3CCN(C)CC3)c(C)c3[nH]c4ncc(C)cc4c23)c1 [TAK-901] (10 nM) as the molecule, how does the normalised response read?
Its normalised response is 101%.

O=c1[nH]c(=O)n([C@H]2C[C@H](O)[C@@H](CO)O2)cc1F [Floxuridine] (100 nM) was tested. Which normalised response did it give?
The normalised response was 94.4%.

test system: CAL-120; experiment: as above; conditions: incubation time: 72 h
Procedure: as §1

With CC(C)(C)c1cc(NC(=O)Nc2ccc(-c3cn4c(n3)sc3cc(OCCN5CCOCC5)ccc34)cc2)no1 [Quizartinib] (10 nM) as the molecule, how does the normalised response read?
The normalised response was 108%.

For CN(c1ccccc1CNc1nc(Nc2ccc3c(c2)CC(=O)N3)ncc1C(F)(F)F)S(C)(=O)=O (100 nM), which normalised response is on record?
The normalised response was 87.2%.

For Nc1nccc(-c2c(-c3ccc(F)cc3)ncn2C2CCCCC2)n1 (100 nM), which normalised response is on record?
Its normalised response is 105%.

For COC1=C2C[C@@H](C)C[C@H](OC)[C@H](O)[C@@H](C)/C=C(\C)[C@H](OC(N)=O)[C@@H](OC)/C=C\C=C(/C)C(=O)NC(=CC1=O)C2=O [Geldanamycin] (100 nM), which normalised response is on record?
Its normalised response is 109%.

How did the normalised response turn out when Cn1c(=O)c(F)c(Nc2ccc(I)cc2F)c2c(=O)n(C[C@@H](O)CO)cnc21 [TAK-733] (10 nM) was run?
Its normalised response is 97.6%.

For CS(=O)(=O)CCNCc1ccc(-c2ccc3ncnc(Nc4ccc(OCc5cccc(F)c5)c(Cl)c4)c3c2)o1 [Lapatinib] (10 nM), which normalised response is on record?
The normalised response was 107%.

With Cc1cc(C(C)Nc2ccccc2)c2nc(N3CCOCC3)cc(=O)n2c1 (stereo not given) [TGX-221] (100 nM) as the molecule, how does the normalised response read?
The normalised response was 97.2%.

CCS(=O)(=O)c1cccc(-c2cc(C(=O)NC3CCN(C)CC3)c(C)c3[nH]c4ncc(C)cc4c23)c1 [TAK-901] (10 nM) was tested. Which normalised response did it give?
Its normalised response is 99.6%.

How did the normalised response turn out when O=c1[nH]c(=O)n([C@H]2C[C@H](O)[C@@H](CO)O2)cc1F [Floxuridine] (100 nM) was run?
The normalised response was 99.3%.

test system: CAL-148; experiment: as above; conditions: incubation time: 72 h
Procedure: as §1

With CC(C)(C)c1cc(NC(=O)Nc2ccc(-c3cn4c(n3)sc3cc(OCCN5CCOCC5)ccc34)cc2)no1 [Quizartinib] (10 nM) as the molecule, how does the normalised response read?
The normalised response was 103%.

For CN(c1ccccc1CNc1nc(Nc2ccc3c(c2)CC(=O)N3)ncc1C(F)(F)F)S(C)(=O)=O (100 nM), which normalised response is on record?
The normalised response was 104%.

With Nc1nccc(-c2c(-c3ccc(F)cc3)ncn2C2CCCCC2)n1 (100 nM) as the molecule, how does the normalised response read?
Its normalised response is 105%.

For COC1=C2C[C@@H](C)C[C@H](OC)[C@H](O)[C@@H](C)/C=C(\C)[C@H](OC(N)=O)[C@@H](OC)/C=C\C=C(/C)C(=O)NC(=CC1=O)C2=O [Geldanamycin] (100 nM), which normalised response is on record?
The normalised response was 118%.

For Cn1c(=O)c(F)c(Nc2ccc(I)cc2F)c2c(=O)n(C[C@@H](O)CO)cnc21 [TAK-733] (10 nM), which normalised response is on record?
The normalised response was 97.2%.

For CS(=O)(=O)CCNCc1ccc(-c2ccc3ncnc(Nc4ccc(OCc5cccc(F)c5)c(Cl)c4)c3c2)o1 [Lapatinib] (10 nM), which normalised response is on record?
Its normalised response is 112%.

Which normalised response does the source give for Cc1cc(C(C)Nc2ccccc2)c2nc(N3CCOCC3)cc(=O)n2c1 (stereo not given) [TGX-221] (100 nM) here?
Its normalised response is 100%.

CCS(=O)(=O)c1cccc(-c2cc(C(=O)NC3CCN(C)CC3)c(C)c3[nH]c4ncc(C)cc4c23)c1 [TAK-901] (10 nM) was tested. Which normalised response did it give?
Its normalised response is 104%.

For O=c1[nH]c(=O)n([C@H]2C[C@H](O)[C@@H](CO)O2)cc1F [Floxuridine] (100 nM), which normalised response is on record?
Its normalised response is 110%.

test system: CAL-51; experiment: as above; conditions: incubation time: 72 h
Procedure: as §1

With CC(C)(C)c1cc(NC(=O)Nc2ccc(-c3cn4c(n3)sc3cc(OCCN5CCOCC5)ccc34)cc2)no1 [Quizartinib] (10 nM) as the molecule, how does the normalised response read?
Its normalised response is 71.4%.

CN(c1ccccc1CNc1nc(Nc2ccc3c(c2)CC(=O)N3)ncc1C(F)(F)F)S(C)(=O)=O (100 nM) was tested. Which normalised response did it give?
Its normalised response is 93.1%.

With Nc1nccc(-c2c(-c3ccc(F)cc3)ncn2C2CCCCC2)n1 (100 nM) as the molecule, how does the normalised response read?
The normalised response was 84.4%.

How did the normalised response turn out when COC1=C2C[C@@H](C)C[C@H](OC)[C@H](O)[C@@H](C)/C=C(\C)[C@H](OC(N)=O)[C@@H](OC)/C=C\C=C(/C)C(=O)NC(=CC1=O)C2=O [Geldanamycin] (100 nM) was run?
Its normalised response is 84.7%.

How did the normalised response turn out when Cn1c(=O)c(F)c(Nc2ccc(I)cc2F)c2c(=O)n(C[C@@H](O)CO)cnc21 [TAK-733] (10 nM) was run?
The normalised response was 84.7%.

With CS(=O)(=O)CCNCc1ccc(-c2ccc3ncnc(Nc4ccc(OCc5cccc(F)c5)c(Cl)c4)c3c2)o1 [Lapatinib] (10 nM) as the molecule, how does the normalised response read?
Its normalised response is 90.1%.

Which normalised response does the source give for Cc1cc(C(C)Nc2ccccc2)c2nc(N3CCOCC3)cc(=O)n2c1 (stereo not given) [TGX-221] (100 nM) here?
The normalised response was 65.8%.

CCS(=O)(=O)c1cccc(-c2cc(C(=O)NC3CCN(C)CC3)c(C)c3[nH]c4ncc(C)cc4c23)c1 [TAK-901] (10 nM) was tested. Which normalised response did it give?
The normalised response was 92.4%.

With O=c1[nH]c(=O)n([C@H]2C[C@H](O)[C@@H](CO)O2)cc1F [Floxuridine] (100 nM) as the molecule, how does the normalised response read?
The normalised response was 57.2%.

test system: CAL-85-1; experiment: as above; conditions: incubation time: 72 h
Procedure: as §1

Which normalised response does the source give for CC(C)(C)c1cc(NC(=O)Nc2ccc(-c3cn4c(n3)sc3cc(OCCN5CCOCC5)ccc34)cc2)no1 [Quizartinib] (10 nM) here?
Its normalised response is 103%.

How did the normalised response turn out when CN(c1ccccc1CNc1nc(Nc2ccc3c(c2)CC(=O)N3)ncc1C(F)(F)F)S(C)(=O)=O (100 nM) was run?
The normalised response was 95.5%.

Nc1nccc(-c2c(-c3ccc(F)cc3)ncn2C2CCCCC2)n1 (100 nM) was tested. Which normalised response did it give?
The normalised response was 98.9%.

Which normalised response does the source give for COC1=C2C[C@@H](C)C[C@H](OC)[C@H](O)[C@@H](C)/C=C(\C)[C@H](OC(N)=O)[C@@H](OC)/C=C\C=C(/C)C(=O)NC(=CC1=O)C2=O [Geldanamycin] (100 nM) here?
Its normalised response is 108%.

Cn1c(=O)c(F)c(Nc2ccc(I)cc2F)c2c(=O)n(C[C@@H](O)CO)cnc21 [TAK-733] (10 nM) was tested. Which normalised response did it give?
The normalised response was 93.7%.

Which normalised response does the source give for CS(=O)(=O)CCNCc1ccc(-c2ccc3ncnc(Nc4ccc(OCc5cccc(F)c5)c(Cl)c4)c3c2)o1 [Lapatinib] (10 nM) here?
Its normalised response is 101%.
